Experimental findings from patent US8440837B2, “2-substituted-ethynylthiazole derivatives and uses of same” (H. Lundbeck A/S, priority 2009, dated 2013) are described below.

As usually defined, the IC50 is the concentration that gives 50% inhibition. In general, EC50 refers to the concentration at which the effect is half-maximal.

Experiment [1] has as its target human metabotropic glutamate receptor 5 (hmGluR5). Nature of the experiment: Calcium mobilization (FLIPR) assay, negative allosteric modulation of the EC80 glutamate response. In kind it is cell-based. The following applies: HEK 293 cells, inhibition of EC80 glutamate response. On the procedure:
(§1) The cDNA for human metabotropic glutamate receptor 5 (hmGluR5) was a generous gift from S. Nakanishi (Kyoto University, Kyoto, Japan). The […] was stably expressed in a HEK 293 cell line and grown in Dulbecco's Modified Eagle Medium (DMEM) (Invitrogen, Carlsbad, Calif.) with supplements (10% bovine calf serum, 4 mM glutamine, 100 units/mL penicillin, 100 μg/mL streptomycin and […]) at 37° C., 5% CO2. Twenty-four hours prior to assay, cells were seeded into 384-well black wall microtiter plates coated with poly-D-lysine. Just prior to assay, media was aspirated and cells dye-loaded (25 μL/well) with 3 μM Fluo-4/0.01% pluronic acid in assay buffer (Hank's Balanced Saline Solution (HBSS)): 150 mM NaCl, 5 mM KCl, 1 mM CaCl2, 1 mM MgCl2, plus 20 mM N-2-Hydroxyethylpiperazine-N′-2-ethanesulfonic acid (HEPES), pH 7.4, 0.1% bovine serum albumin (BSA) and 2.5 mM probenicid) for 1 hour in 5% CO2 at 37° C. After excess dye was discarded, cells were washed in assay buffer and layered with a final volume equal to 30 μL/well. Basal fluorescence is monitored in a fluorometric imaging plate reader (FLIPR) (Molecular Devices, Sunnyvale, Calif.) with an excitation wavelength of 488 nm and an emission range of 500 to 560 nm. Laser excitation energy was adjusted so that basal fluorescence readings were approximately 10,000 relative fluorescent units. Cells were stimulated with an EC20 or an EC80 concentration of glutamate in the presence of a compound to be tested, both diluted in assay buffer, and relative fluorescent units were measured at defined intervals (exposure=0.6 sec) over a 3 min period at room temperature. Basal readings derived from negative controls were subtracted from all samples. Maximum change in fluorescence was calculated for each well. Concentration-response curves derived from the maximum change in fluorescence were analyzed by nonlinear regression (Hill equation).
A negative allosteric modulator (NAM) can be identified from these concentration-response curves if a compound produces a concentration dependent inhibition of the EC80 glutamate response.

The target of experiment [2] is human metabotropic glutamate receptor 5 (hmGluR5) (UniProt P31424). Nature of the experiment: Calcium mobilization (FLIPR) assay, positive allosteric modulation of the EC20 glutamate response. The following applies: HEK 293 cells; for maximum modulation (Emax): EC20 glutamate response; for EC50: increase in EC20 glutamate response. In kind it is cell-based. On the procedure: as §1
A silent allosteric modulator (SAM) can be identified by using a combination of both the calcium mobilization assay data and the radioligand binding data. As used herein, the term “silent allosteric modulator” refers to a ligand that binds to an allosteric site of the receptor but has no measurable intrinsic efficacy.
A general note: A change in cytosolic calcium serves as a functional read-out for many receptors and channels.

As to `COC[C@@H]1CCCN1C(=O)c1cnc(C#Cc2ccccc2)s1` [Example 168, ((S)-2-Methoxymethyl-pyrrolidin-1-yl)-(2-phenylethynyl-thiazol-5-yl)-methanone], the IC50 in experiment [1] came out at 27 nM.

Regarding `O=C(c1cnc(C#Cc2ccccc2)s1)N1CC[C@@H](F)C1` [Example 6, ((R)-3-Fluoro-pyrrolidin-1-yl)-(2-phenylethynyl-thiazol-5-yl)-methanone], in experiment [1], the IC50 is 37 nM.

Take `O=C(c1cnc(C#Cc2ccccc2)s1)N1CCC(F)(F)C1` [Example 115, (3,3-Difluoro-pyrrolidin-1-yl)-(2-phenylethynyl-thiazol-5-yl)-methanone]: the IC50 in experiment [1] amounted to 31 nM.

For `Cc1nc(C#Cc2ccccc2)sc1C(=O)N1CCCCC1` [Example 13, (4-Methyl-2-phenylethynyl-thiazol-5-yl)-piperidin-1-yl-methanone], in experiment [1], the IC50 is 53 nM.

As to `O=C(c1cnc(C#Cc2cccc(F)c2)s1)N1CCCC1` [Example 21, [2-(3-Fluoro-phenylethynyl)-thiazol-5-yl]-pyrrolidin-1-yl-methanone], in experiment [1], the IC50 amounted to 7.1 nM.

Regarding `CC(O)(c1ccccc1)c1cnc(C#Cc2ccccc2)s1` (stereo not shown) [Example 240, 1-Phenyl-1-(2-phenylethynyl-thiazol-5-yl)-ethanol], the IC50 in experiment [1] is 140 nM.

For `O=C(c1cnc(C#Cc2ccccc2)s1)N1CC(F)(F)C1` [Example 114, (3,3-Difluoro-azetidin-1-yl)-(2-phenylethynyl-thiazol-5-yl)-methanone], in experiment [1], the IC50 turned out to be 54 nM.

In the case of `Cc1cccc(C#Cc2ncc(C(=O)NC3CCCC3)s2)c1` [Example 24, 2-m-Tolylethynyl-thiazole-5-carboxylic acid cyclopentylamide], the IC50 in experiment [1] stood at 0.7 nM.

For `O=C(c1cnc(C#Cc2ccccc2)s1)N1CCCC1` [Example 4, (2-Phenylethynyl-thiazol-5-yl)-pyrrolidin-1-yl-methanone], in experiment [1], the IC50 was found to be 3.2 nM.

With `COCC1CCCN(C(=O)c2cnc(C#Cc3ccccc3)s2)C1` (stereo not shown) [Example 123, (3-Methoxymethyl-piperidin-1-yl)-(2-phenylethynyl-thiazol-5-yl)-methanone], in experiment [1], the half-maximal inhibitory concentration (IC50) was 33 nM.

In the case of `O=C(c1cnc(C#Cc2ccccc2)s1)N1CC[C@H](F)C1` [Example 5, ((S)-3-Fluoro-pyrrolidin-1-yl)-(2-phenylethynyl-thiazol-5-yl)-methanone], the IC50 in experiment [1] worked out at 3.2 nM.

As for `O=C(c1cnc(C#Cc2ccccc2)s1)N1CC2CNCC2C1` (stereo not shown) [Example 173, (Hexahydro-pyrrolo[3,4-c]pyrrol-2-yl)-(2-phenylethynyl-thiazol-5-yl)-methasone], the IC50 in experiment [1] stood at 440 nM.

Take `CC(C)(C)OC(=O)N1CC2CN(C(=O)c3cnc(C#Cc4ccccc4)s3)CC2C1` (stereo not shown) [Example 171, 5-(2-Phenylethynyl-thiazole-5-carbonyl)-hexahydro-pyrrolo[3,4-c]pyrrole-2-carboxylic acid tert-butyl ester]: in experiment [1], the IC50 was 25 nM.

With `O=C(c1cnc(C#Cc2cccnc2)s1)N1CCCCC1` [Example 188, Piperidin-1-yl-(2-pyridin-3-ylethynyl-thiazol-5-yl)-methanone], in experiment [2], the “maximum modulation (Emax)” value is 95% and the EC50 amounted to 6200 nM.

Consider `CC(c1cnc(C#Cc2ccccc2)s1)N1CCCCC1` (stereo not shown) [Example 231, 1-[1-(2-Phenylethynyl-thiazol-5-yl)-ethyl]-piperidine], for which the IC50 in experiment [1] worked out at 700 nM.

On to `O=C(c1cnc(C#Cc2ccccc2)s1)N1CCCCCC1` [Example 58, Azepan-1-yl-(2-phenylethynyl-thiazol-5-yl)-methanone], for which, in experiment [2], the “maximum modulation (Emax)” value is recorded as 79% and the EC50 came out at 5.2 nM.

For the compound `CC1CCN(C(=O)c2cnc(C#Cc3ccccc3F)s2)CC1` [Example 63, [2-(2-Fluoro-phenylethynyl)-thiazol-5-yl]-(4-methyl-piperidin-1-yl)-methanone], in experiment [2], the “maximum modulation (Emax)” value stood at 140% and the EC50 was found to be 20 nM.

As to `O=C(c1ccccc1)c1cnc(C#Cc2ccccc2)s1` [Example 237, Phenyl-(2-phenylethynyl-thiazol-5-yl)-methanone], in experiment [1], the IC50 was 360 nM.

For `O=C(c1cnc(C#Cc2ccccc2)s1)N1C2CCC1CC2` [Example 145, (7-Aza-bicyclo[2.2.1]hept-7-yl)-(2-phenylethynyl-thiazol-5-yl)-methanone], the IC50 in experiment [1] is 5 nM.

Regarding `CN(C)Cc1cnc(C#Cc2ccccc2)s1` [Example 212, Dimethyl-(2-phenylethynyl-thiazol-5-ylmethyl)-amine], in experiment [2], the “maximum modulation (Emax)” value was 71% and the EC50 came out at 37 nM.

Regarding `O=C(c1cnc(C#Cc2cccc(Cl)c2)s1)N1CCC(O)CC1` [Example 38, [2-(3-Chloro-phenylethynyl)-thiazol-5-yl]-(4-hydroxy-piperidin-1-yl)-methanone], in experiment [2], the “maximum modulation (Emax)” value worked out at 42% and the EC50 stood at 12 nM.

In the case of `O=C(c1cnc(C#Cc2ccccc2)s1)N1CC2CCCC2C1` (stereo not shown) [Example 144, (Hexahydro-cyclopenta[c]pyrrol-2-yl)-(2-phenylethynyl-thiazol-5-yl)-methanone], in experiment [2], the “maximum modulation (Emax)” value worked out at 110% and the EC50 stood at 1.8 nM.

Regarding `O=C(c1cnc(C#Cc2ccccc2)s1)N1CCC(F)(F)CC1` [Example 82, (4,4-Difluoro-piperidin-1-yl)-(2-phenylethynyl-thiazol-5-yl)-methanone], in experiment [2], the “maximum modulation (Emax)” value was 150% and the EC50 was 4.3 nM.

`O=C(c1cnc(C#Cc2ccccc2Cl)s1)N1CCCCC1` [Example 68, [2-(2-Chloro-phenylethynyl)-thiazol-5-yl]-piperidin-1-yl-methanone]: in experiment [2], the “maximum modulation (Emax)” value turned out to be 100% and the concentration giving a half-maximal response (EC50) came to 440 nM.

Consider `CC1(O)CCN(C(=O)c2cnc(C#Cc3ccccc3)s2)C1` (stereo not shown) [Example 137, (3-Hydroxy-3-methyl-pyrrolidin-1-yl)-(2-phenylethynyl-thiazol-5-yl)-methanone], for which, in experiment [2], the “maximum modulation (Emax)” value is on record as 38% and the EC50 came to 110 nM.

For the compound `Cc1nc(C#Cc2ccccc2)sc1C(=O)NC1CCCC1` [Example 16, 4-Methyl-2-phenylethynyl-thiazole-5-carboxylic acid cyclopentylamide], the IC50 in experiment [1] is 36 nM.

With `CN1CCN(C(=O)c2cnc(C#Cc3cccc(Cl)c3)s2)CC1` [Example 158, [2-(3-Chloro-phenylethynyl)-thiazol-5-yl]-(4-methyl-piperazin-1-yl)-methanone], in experiment [2], the “maximum modulation (Emax)” value is reported as 94% and the EC50 was determined as 140 nM.

For the compound `FC1(F)CCN(Cc2cnc(C#Cc3ccccc3)s2)CC1` [Example 223, 4,4-Difluoro-1-(2-phenylethynyl-thiazol-5-ylmethyl)-piperidine], in experiment [2], the “maximum modulation (Emax)” value is 110% and the EC50 came to 36 nM.

For the compound `Cc1cccc(C#Cc2ncc(C(=O)N3CCCCC3)s2)n1` [Example 193, [2-(6-Methyl-pyridin-2-ylethynyl)-thiazol-5-yl]-piperidin-1-yl-methasone], the IC50 in experiment [1] turned out to be 29 nM.

With `O=C(c1cnc(C#Cc2ccccn2)s1)N1CCCCC1` [Example 191, Piperidin-1-yl-(2-pyridin-2-ylethynyl-thiazol-5-yl)-methanone], in experiment [1], the IC50 is 29 nM.

For `O=C(c1cnc(C#Cc2ccccn2)s1)N1CCCC1` [Example 198, (2-Pyridin-2-ylethynyl-thiazol-5-yl)-pyrrolidin-1-yl-methanone], the IC50 in experiment [1] amounted to 20 nM.

Regarding `O=C(c1cnc(C#Cc2ccccc2)s1)C1CCCCC1` [Example 238, Cyclohexyl-(2-phenylethynyl-thiazol-5-yl)-methanone], in experiment [2], the “maximum modulation (Emax)” value turned out to be 130% and the EC50 worked out at 110 nM.

Turning to `Cc1nc(C#Cc2ccccc2)sc1C(=O)N1CCC(C)CC1` [Example 14, (4-Methyl-2-phenylethynyl-thiazol-5-yl)-(4-methyl-piperidin-1-yl)-methanone], in experiment [2], the “maximum modulation (Emax)” value is listed as 91% and the concentration for a half-maximal effect (EC50) is 23 nM.
